Laboratory results published in ChEMBL document CHEMBL1148163, “Studies on inhibitors of skin tumor promotion, XII. Rotenoids from Amorpha fruticosa” (J Nat Prod, 1993).

Experiments:
Raji [1] = experiment: Inhibition of 12-O-tetradecanoylphorbol-13-acetate induced EBV-early antigen activation in human Raji cells assessed as EA activation at 500 molar ratio relative to TPA; assay type: cell-based; design: scale not given: the % may be the effect or the level left; details: human gammaherpesvirus 4
[2] = Cytotoxicity against human Raji cells assessed as cell viability at 10 molar ratio; assay type: cell-based; details: read-out: Activity
[3] = Cytotoxicity against human Raji cells assessed as cell viability at 100 molar ratio; assay type: cell-based; details: read-out: Activity
Raji [4] = experiment: Inhibition of 12-O-tetradecanoylphorbol-13-acetate induced EBV-early antigen activation in human Raji cells assessed as EA activation at 1000 molar ratio relative to TPA; assay type: cell-based; design: scale not given: the % may be the effect or the level left; details: human gammaherpesvirus 4
[5] = Cytotoxicity against human Raji cells assessed as cell viability at 1000 molar ratio; assay type: cell-based; details: read-out: Activity
Raji [6] = experiment: Inhibition of 12-O-tetradecanoylphorbol-13-acetate induced EBV-early antigen activation in human Raji cells assessed as EA activation at 10 molar ratio relative to TPA; assay type: cell-based; design: scale not given: the % may be the effect or the level left; details: human gammaherpesvirus 4
Raji [7] = experiment: Inhibition of 12-O-tetradecanoylphorbol-13-acetate induced EBV-early antigen activation in human Raji cells assessed as EA activation at 100 molar ratio relative to TPA; assay type: cell-based; design: scale not given: the % may be the effect or the level left; details: human gammaherpesvirus 4
[8] = Cytotoxicity against human Raji cells assessed as cell viability at 500 molar ratio; assay type: cell-based; details: read-out: Activity
Mus musculus [9] = experiment: Inhibition of DMBA-induced/TPA-promoted carcinogenesis in ICR mouse assessed as reduction in skin-papilloma formation at 85 nmol administered twice weekly after 1 week of initiation for 20 weeks; assay type: functional; design: scale not given: the % may be the effect or the level left
Raji [10] = experiment: Effect on TPA-induced cell cycle arrest in human Raji cells assessed as accumulation at G2/M phase at 32 nmol by flow cytometry; assay type: functional
Mus musculus [11] = experiment: Inhibition of DMBA-induced/TPA-promoted carcinogenesis in ICR mouse assessed as number of skin papillomas per mouse at 85 nmol administered twice weekly after 1 week of initiation for 20 weeks; assay type: functional; design: scale not given: the % may be the effect or the level left
Raji [12] = experiment: Effect on TPA-induced cell cycle arrest in human Raji cells assessed as accumulation at G1 phase at 32 nmol by flow cytometry; assay type: functional
Raji [13] = experiment: Effect on TPA-induced cell cycle arrest in human Raji cells assessed as accumulation at S phase at 32 nmol by flow cytometry; assay type: functional
Mus musculus [14] = experiment: Inhibition of DMBA-induced/TPA-promoted carcinogenesis in ICR mouse assessed as number of mouse bearing one papilloma at 85 nmol administered twice weekly after 1 week of initiation; assay type: functional; design: scale not given: the % may be the effect or the level left

Row | Structure (SMILES) | Activity (Raji [1]) | viability at 10 molar ratio [2] | viability at 100 molar ratio [3] | Activity (Raji [4]) | viability at 1000 molar ratio [5] | Activity (Raji [6]) | Activity (Raji [7]) | viability at 500 molar ratio [8] | Activity (Mus musculus [9]) | Activity (Raji [10]) | Activity (Mus musculus [11]) | Activity (Raji [12]) | Activity (Raji [13]) | Activity (Mus musculus [14])
1 | C=C(CO)[C@H]1Cc2c(ccc3c2O[C@@H]2COc4cc(OC)c(OC)cc4[C@@H]2C3=O)O1 [AMORPHIGENIN] | 64.2% | 80% | 80% | 31.7% | 80% | 100% | 100% | 80% |  |  |  |  |  | 
2 | COc1cc2c(cc1OC)[C@]1(O)C(=O)c3ccc4c(c3O[C@@H]1CO2)C=CC(C)(C)O4 [TEPHROSIN] | 26.1% | 80% | 70% | 8% | 40% | 89.3% | 60.4% | 60% | 60% | 28.8% | 70% | 57.8% | 13.4% | 
3 | COC1=CC(=O)[C@]2(C=C1OC)OC[C@H]1Oc3c(ccc4c3C=CC(C)(C)O4)C(=O)[C@H]12 [AMORPHISPIRONONE] | 31.8% | 80% | 80% | 0% | 20% | 100% | 70.4% | 80% | >80% | 30.6% | >90% | 59.1% | 10.3% | 20%
4 | COc1cc2c(cc1OC)[C@@H]1C(=O)c3ccc4c(c3O[C@@H]1CO2)C[C@H](C(C)(C)O[C@@H]1O[C@H](CO)[C@@H](O)[C@H](O)[C@H]1O)O4 | 36.3% | 80% | 80% | 0% | 80% | 100% | 87.3% | 80% |  |  |  |  |  | 
5 | C=C(CO)[C@H]1Cc2c(ccc3c2O[C@@H]2COc4cc(OC)c(OC)cc4[C@]2(O)C3=O)O1 [DABINOL] | 89.7% | 80% | 80% | 24.2% | 80% | 100% | 100% | 80% |  |  |  |  |  | 
6 | COc1cc2c(cc1OC)[C@]1(O)C(=O)c3ccc4c(c3O[C@@H]1CO2)C[C@H](C(C)(C)O)O4 | 43.9% | 80% | 80% | 22.6% | 80% | 100% | 82.1% | 80% |  |  |  |  |  | 
